Experimental findings from patent US10508077B2 (FORMA Therapeutics, Inc., priority 2015, dated 2019) are described below.

Where only a bound is given, the exact number is not on record here.

Assay [1] deals with T1, Full length human recombinant HDAC8 protein (Homo sapiens, UniProt Q9BY41).
T1 construct: Full length human recombinant HDAC8 protein was expressed in baculoviral system; made in house
T1 sequence (Q9BY41 1-377): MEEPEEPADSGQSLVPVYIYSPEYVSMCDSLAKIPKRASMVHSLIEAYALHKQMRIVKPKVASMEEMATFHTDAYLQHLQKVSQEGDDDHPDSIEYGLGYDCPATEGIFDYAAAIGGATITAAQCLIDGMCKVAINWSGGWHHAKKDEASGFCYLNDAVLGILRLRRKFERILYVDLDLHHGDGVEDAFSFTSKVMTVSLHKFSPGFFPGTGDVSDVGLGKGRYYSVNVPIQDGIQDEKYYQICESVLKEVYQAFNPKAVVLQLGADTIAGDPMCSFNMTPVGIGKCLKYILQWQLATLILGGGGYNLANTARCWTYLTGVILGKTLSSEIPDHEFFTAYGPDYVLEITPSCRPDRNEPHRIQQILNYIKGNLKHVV
Briefly: In vitro histone deacetylase assay: enzymatic HDAC8 assay, electrophoretic mobility shift. The class given is biochemical. The following applies: substrate RHKK(Ac)-NH2, 1 nM enzyme, compounds listed under IC50 range headings. The procedure, abridged:
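Readout was microfluidic mobility-shift separation of deacetylated product from fluorescent RHKK(Ac)-NH2 substrate (2 µM), after reaction with 1 nM recombinant full-length human HDAC8 at 25 °C, pH 7.5, stopped with SDS. Twelve 3-fold-spaced concentrations tested; product/sum ratios normalized to controls and fitted with a 4-parameter model for IC50.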

The target in assay [2] is T2, Recombinant N-terminal GST tag full-length human HDAC8 (Homo sapiens, UniProt Q9BY41).
T2 construct: Recombinant N-terminal GST tag full-length human HDAC8; purchased SignalChem H90-30G-1000; host or cells: Sf9 insect cells (baculovirus)
T2 sequence (Q9BY41 1-377): T1 sequence (Q9BY41 1-377)
Briefly: HDAC8 probe binding assay, time resolved fluorescence (TRF). The following applies: fluorescein labeled pan-HDAC inhibitor probe, 16 hours incubation, compounds listed under IC50 range headings. The method in brief: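 TR-FRET probe displacement using GST-tagged full-length human HDAC8 (Sf9-expressed, 2.5 nM) with 1.5 nM fluorescein-labelled pan-HDAC inhibitor probe and anti-GST terbium, in HEPES pH 7.5 buffer with GSH, BGG, Triton X-100. Compounds 25 μM–1.3 nM, 10-point; 16 h at room temperature. IC50 from 4-parameter fit of % inhibition versus no-enzyme and DMSO controls.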

A word on the IC50: it is the concentration that inhibits the measured activity by half. In the case of `Cn1ccnc1S(=O)(=O)N1CCN(c2ccccc2/C=C/C(=O)NO)CC1` [Example I-252, (E)-N-hydroxy-3-(2-(4-((1-methyl-1H-imidazol-2-yl)sulfonyl)piperazin-1-yl)phenyl)acrylamide], the IC50 was less than 1000 nM in assay [1] and no more than 1000 nM in assay [2].

Turning to `O=C(/C=C/c1ccccc1N1CCC(c2ccccc2)C1=O)NO` (centres unmarked) [Example I-262, (E)-N-hydroxy-3-(2-(2-oxo-3-phenylpyrrolidin-1-yl)phenyl)acrylamide], the IC50 in assay [1] is less than 1000 nM; in assay [2], no more than 1000 nM.

For `CC(C)(C)OC(=O)N1CCN(c2ccccc2/C=C/C(=O)NO)C(=O)C1` [Example I-263, tert-butyl (E)-4-(2-(3-(hydroxyamino)-3-oxoprop-1-en-1-yl)phenyl)-3-oxopiperazine-1-carboxylate], the IC50 in assay [1] was less than 1000 nM; in assay [2], no more than 1000 nM.

Take `Cc1oc(C(C)(C)C)cc1C(=O)Nc1ccccc1/C=C/C(=O)NO` [Example I-265, (E)-5-(tert-butyl)-N-(2-(3-(hydroxyamino)-3-oxoprop-1-en-1-yl)phenyl)-2-methylfuran-3-carboxamide]: the IC50 in assay [1] was less than 1000 nM; in assay [2], no more than 1000 nM.

Turning to `O=C(/C=C/c1ccccc1NC(=O)c1cnn(-c2ccc(Cl)cc2)c1C(F)(F)F)NO` [Example I-266, (E)-1-(4-chlorophenyl)-N-(2-(3-(hydroxyamino)-3-oxoprop-1-en-1-yl)phenyl)-5-(trifluoromethyl)-1H-pyrazole-4-carboxamide], the IC50 in assay [1] was less than 1000 nM; in assay [2], no more than 1000 nM.

As for `O=C(/C=C/c1ccccc1NC(=O)c1ccccc1Oc1ccc(Cl)cc1)NO` [Example I-268, (E)-2-(4-chlorophenoxy)-N-(2-(3-(hydroxyamino)-3-oxoprop-1-en-1-yl)phenyl)benzamide], the IC50 in assay [1] is less than 1000 nM; in assay [2], no more than 1000 nM.

Take `CCCn1c(C(=O)Nc2ccccc2/C=C/C(=O)NO)cc2ccccc21` [Example I-270, (E)-N-(2-(3-(hydroxyamino)-3-oxoprop-1-en-1-yl)phenyl)-1-propyl-1H-indole-2-carboxamide]: the IC50 is less than 1000 nM in assay [1] and no more than 1000 nM in assay [2].

With `CCn1nc(C)cc1C(=O)Nc1ccccc1/C=C/C(=O)NO` [Example I-274, (E)-1-ethyl-N-(2-(3-(hydroxyamino)-3-oxoprop-1-en-1-yl)phenyl)-3-methyl-1H-pyrazole-5-carboxamide], the IC50 is less than 1000 nM in assay [1] and no more than 1000 nM in assay [2].

Regarding `Cc1onc(-c2c(Cl)cccc2Cl)c1C(=O)Nc1ccccc1/C=C/C(=O)NO` [Example I-275, (E)-3-(2,6-dichlorophenyl)-N-(2-(3-(hydroxyamino)-3-oxoprop-1-en-1-yl)phenyl)-5-methylisoxazole-4-carboxamide], the IC50 in assay [1] is less than 1000 nM; in assay [2], no more than 1000 nM.

`CCC(Oc1ccccc1)C(=O)Nc1ccccc1/C=C/C(=O)NO` (centres unmarked) [Example I-281, (E)-N-(2-(3-(hydroxyamino)-3-oxoprop-1-en-1-yl)phenyl)-2-phenoxybutanamide]: the IC50 in assay [1] is less than 1000 nM; in assay [2], no more than 1000 nM.

In the case of `O=C(/C=C/c1ccccc1NC(=O)[C@@H]1C[C@H]2CC[C@@H]1O2)NO` [Example I-282, (1S,2R,4R)-N-(2-((E)-3-(hydroxyamino)-3-oxoprop-1-en-1-yl)phenyl)-7-oxabicyclo[2.2.1]heptane-2-carboxamide], the IC50 is less than 1000 nM in assay [1] and no more than 1000 nM in assay [2].

In the case of `Cc1cc(C)n(Cc2ccc(C(=O)Nc3ccccc3/C=C/C(=O)NO)cc2)n1` [Example I-288, (E)-4-((3,5-dimethyl-1H-pyrazol-1-yl)methyl)-N-(2-(3-(hydroxyamino)-3-oxoprop-1-en-1-yl)phenyl)benzamide], the IC50 was less than 1000 nM in assay [1] and no more than 1000 nM in assay [2].

With `COc1ccc(CN2CCN(c3ccccc3/C=C/C(=O)NO)C(=O)C2)cc1` [Example I-293, (E)-N-hydroxy-3-(2-(4-(4-methoxybenzyl)-2-oxopiperazin-1-yl)phenyl)acrylamide], the values for the IC50 in assay [1] and in assay [2] were less than 1000 nM and no more than 1000 nM, respectively.

Consider `Cc1cc(C(=O)N2CCN(c3ccccc3/C=C/C(=O)NO)CC2)n(C)n1` [Example I-298, (E)-3-(2-(4-(1,3-dimethyl-1H-pyrazole-5-carbonyl)piperazin-1-yl)phenyl)-N-hydroxyacrylamide], for which the IC50 in assay [1] is less than 1000 nM; in assay [2] it was no more than 1000 nM.

Take `O=C(/C=C/c1ccccc1NC(=O)c1ccccc1Oc1ccc(C(F)(F)F)cc1)NO` [Example I-303, (E)-N-(2-(3-(hydroxyamino)-3-oxoprop-1-en-1-yl)phenyl)-2-(4-(trifluoromethyl)phenoxy)benzamide]: the IC50 in assay [1] was less than 1000 nM; in assay [2], no more than 1000 nM.

Regarding `COc1ccccc1Oc1ccccc1C(=O)Nc1ccccc1/C=C/C(=O)NO` [Example I-304, (E)-N-(2-(3-(hydroxyamino)-3-oxoprop-1-en-1-yl)phenyl)-2-(2-methoxyphenoxy)benzamide], the IC50 is less than 1000 nM in assay [1] and no more than 1000 nM in assay [2].

Turning to `O=C(/C=C/c1ccccc1NC(=O)c1ccccc1Oc1ccc(F)cc1)NO` [Example I-306, (E)-2-(4-fluorophenoxy)-N-(2-(3-(hydroxyamino)-3-oxoprop-1-en-1-yl)phenyl)benzamide], the IC50 in assay [1] is less than 1000 nM; in assay [2], no more than 1000 nM.

On to `CC(=O)NC1CCN(c2ccccc2/C=C/C(=O)NO)C1` (centres unmarked) [Example I-307, (E)-3-(2-(3-acetamidopyrrolidin-1-yl)phenyl)-N-hydroxyacrylamide], for which the results for the IC50 in assay [1] and in assay [2] were less than 1000 nM and no more than 1000 nM, respectively.

Take `O=C(/C=C/c1ccccc1N1CC(c2ccccc2)CC1=O)NO` (centres unmarked) [Example I-309, (E)-N-hydroxy-3-(2-(2-oxo-4-phenylpyrrolidin-1-yl)phenyl)acrylamide]: the values for the IC50 in assay [1] and in assay [2] were less than 1000 nM and no more than 1000 nM, respectively.

`CC(C)(C)OC(=O)N1CCC2(CC1)CCN(c1ccccc1/C=C/C(=O)NO)C2=O` [Example I-310, tert-butyl (E)-2-(2-(3-(hydroxyamino)-3-oxoprop-1-en-1-yl)phenyl)-1-oxo-2,8-diazaspiro[4.5]decane-8-carboxylate]: the IC50 in assay [1] is less than 1000 nM; in assay [2] it was no more than 1000 nM.

On to `O=C(/C=C/c1ccccc1NC(=O)c1cnc(-c2ccccc2F)s1)NO` [Example I-311, (E)-2-(2-fluorophenyl)-N-(2-(3-(hydroxyamino)-3-oxoprop-1-en-1-yl)phenyl)thiazole-5-carboxamide], for which the IC50 in assay [1] is less than 1000 nM; in assay [2] it was no more than 1000 nM.

As for `O=C(/C=C/c1ccccc1NC(=O)c1cnc(-c2ccccn2)s1)NO` [Example I-312, (E)-N-(2-(3-(hydroxyamino)-3-oxoprop-1-en-1-yl)phenyl)-2-(pyridin-2-yl)thiazole-5-carboxamide], the half-inhibitory concentration (IC50) in assay [1] was less than 1000 nM; in assay [2], no more than 1000 nM.

With `O=C(/C=C/c1ccccc1NC(=O)c1ccncc1N1CCOCC1)NO` [Example I-313, (E)-N-(2-(3-(hydroxyamino)-3-oxoprop-1-en-1-yl)phenyl)-3-morpholinoisonicotinamide], the IC50 in assay [1] was less than 1000 nM; in assay [2] it was no more than 1000 nM.

For the molecule `O=C(/C=C/c1ccccc1NC(=O)c1ccccc1Oc1cccnc1)NO` [Example I-314, (E)-N-(2-(3-(hydroxyamino)-3-oxoprop-1-en-1-yl)phenyl)-2-(pyridin-3-yloxy)benzamide], the IC50 in assay [1] is less than 1000 nM; in assay [2], no more than 1000 nM.

Take `Cc1nc(C)c(CN2CCN(c3ccccc3/C=C/C(=O)NO)CC2)s1` [Example I-315, (E)-3-(2-(4-((2,4-dimethylthiazol-5-yl)methyl)piperazin-1-yl)phenyl)-N-hydroxyacrylamide]: the values for the IC50 in assay [1] and in assay [2] were less than 1000 nM and no more than 1000 nM, respectively.

With `Cc1cc(CN2C[C@@H]3C[C@H]2CN3c2ccccc2/C=C/C(=O)NO)n(C)n1` [Example I-317, (E)-3-(2-((1S,4S)-5-((1,3-dimethyl-1H-pyrazol-5-yl)methyl)-2,5-diazabicyclo[2.2.1]heptan-2-yl)phenyl)-N-hydroxyacrylamide], the IC50 in assay [1] is less than 1000 nM; in assay [2], no more than 1000 nM.

With `O=C(/C=C/c1ccccc1NC(=O)c1cnc(N2CCOCC2)s1)NO` [Example I-319, (E)-N-(2-(3-(hydroxyamino)-3-oxoprop-1-en-1-yl)phenyl)-2-morpholinothiazole-5-carboxamide], the values for the IC50 in assay [1] and in assay [2] were less than 1000 nM and no more than 1000 nM, respectively.

As to `Cc1onc(-c2ccccc2Cl)c1C(=O)Nc1ccccc1/C=C/C(=O)NO` [Example I-320, (E)-3-(2-chlorophenyl)-N-(2-(3-(hydroxyamino)-3-oxoprop-1-en-1-yl)phenyl)-5-methylisoxazole-4-carboxamide], the figures for the half-inhibitory concentration (IC50) in assay [1] and in assay [2] were less than 1000 nM and no more than 1000 nM, respectively.
